{
  "source": "patent US20180320217A1",
  "about": "“METHODS FOR SAMPLING AND MEASURING ORAL LAVAGE PROTEINS” (The Procter & Gamble Company, priority 2017, published 2018)",
  "key": {"[1]": {"test_system": "diaphorase", "experiment": "Formation of formazan dyes: NADH and diaphorase, absence of malate (TABLE 7)", "type": "biochemical, Clostridium kluyveri"}, "[2]": {"test_system": "diaphorase", "experiment": "Formation of formazan dyes: NADH, diaphorase and malate (TABLE 8)", "type": "biochemical, Clostridium kluyveri"}, "[3]": {"test_system": "Malate dehydrogenase and diaphorase", "experiment": "Formation of formazan dyes: Malate dehydrogenase and diaphorase, absence of malate (TABLE 9)", "type": "biochemical, pig heart"}, "[4]": {"test_system": "Malate dehydrogenase and diaphorase", "experiment": "Formation of formazan dyes: Malate dehydrogenase, diaphorase and malate (TABLE 10)", "type": "biochemical, pig heart"}, "[5]": {"test_system": "oral lavage", "experiment": "Formation of formazan dyes: oral lavage and diaphorase, not malate (TABLE 11)", "type": "biochemical, human"}, "[6]": {"test_system": "oral lavage", "experiment": "Formation of formazan dyes: oral lavage, malate and diaphorase (TABLE 12)", "type": "biochemical, human"}, "[7]": {"experiment": "Formation of formazan dyes: NADH and 1-methoxy PMS, absence of malate (TABLE 15)", "type": "biochemical"}, "[8]": {"test_system": "oral lavage", "experiment": "Formation of formazan dyes: oral lavage and 1-Methoxy PMS, absence of malate (TABLE 19)", "type": "biochemical, human"}, "[9]": {"test_system": "oral lavage", "experiment": "Formation of formazan dyes: oral lavage, malate and 1-Methoxy PMS (TABLE 20)", "type": "biochemical, human"}, "[10]": {"experiment": "Formation of formazan dyes: control buffer and 1-Methoxy PMS, absence of malate (TABLE 21)", "type": "biochemical"}, "[11]": {"experiment": "Formation of formazan dyes: control buffer, malate and 1-Methoxy PMS (TABLE 22)", "type": "biochemical"}, "[12]": {"biological_target": "T1, Malate dehydrogenase (Sus scrofa, UniProt P00346)", "T1 sequence (P00346 25-338)": "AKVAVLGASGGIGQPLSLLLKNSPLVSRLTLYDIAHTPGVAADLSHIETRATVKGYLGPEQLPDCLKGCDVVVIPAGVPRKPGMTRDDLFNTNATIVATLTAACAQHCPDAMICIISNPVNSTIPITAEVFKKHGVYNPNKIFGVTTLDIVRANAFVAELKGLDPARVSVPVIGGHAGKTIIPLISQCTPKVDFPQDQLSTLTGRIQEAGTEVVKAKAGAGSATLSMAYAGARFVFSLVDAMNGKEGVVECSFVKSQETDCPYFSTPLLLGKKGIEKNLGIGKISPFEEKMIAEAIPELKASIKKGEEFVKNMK", "experiment": "Formation of formazan dyes: Malate dehydrogenase and 1-Methoxy PMS, absence of malate (TABLE 17)", "type": "biochemical, pig heart", "set-up": "L-malate dehydrogenase (pig heart); purchased Sigma-Aldrich 10127248001 / 10127914001"}},
  "note": "Where “and” joins values, the source holds several entries; their conditions need not be identical. Equal values may be shown once.",
  "data": [
    {"smiles": "COc1cc(-c2ccc(-n3nc(-c4ccccc4)n[n+]3-c3ccc([N+](=O)[O-])cc3)c(OC)c2)ccc1-n1nc(-c2ccccc2)n[n+]1-c1ccc([N+](=O)[O-])cc1", "note": "[Nitro-TB, 3,3′-[3,3′-Dimethoxy-(1,1′-biphenyl)-4,4′-diyl]-bis[2-(4-nitrophenyl)-5-phenyl-2H-tetrazolium chloride]", "values": [
      {"measurement": "Formation of formazan dyes, absorbance, Means 0 h", "setting": "[1]", "result": 1.49},
      {"measurement": "Formation of formazan dyes, absorbance, Means 1 h", "setting": "[1]", "result": 1.71},
      {"measurement": "Formation of formazan dyes, absorbance, Means 2 h", "setting": "[1]", "result": 1.73},
      {"measurement": "Formation of formazan dyes, absorbance, Means 3 h", "setting": "[1]", "result": 1.71},
      {"measurement": "Formation of formazan dyes, absorbance, Means 4 h", "setting": "[1]", "result": 1.74},
      {"measurement": "Formation of formazan dyes, absorbance, Means 6 h", "setting": "[1]", "result": 1.86},
      {"measurement": "Formation of formazan dyes, absorbance, Means 8 h", "setting": "[1]", "result": 1.83},
      {"measurement": "Formation of formazan dyes, absorbance, Means 10 h", "setting": "[1]", "result": 1.85},
      {"measurement": "Formation of formazan dyes, absorbance, Means 12 h", "setting": "[1]", "result": 1.82},
      {"measurement": "Formation of formazan dyes, absorbance, Means 0 h", "setting": "[2]", "result": 1.03},
      {"measurement": "Formation of formazan dyes, absorbance, Means 1 h", "setting": "[2]", "result": 1.15},
      {"measurement": "Formation of formazan dyes, absorbance, Means 2 h", "setting": "[2]", "result": 1.16},
      {"measurement": "Formation of formazan dyes, absorbance, Means 3 h", "setting": "[2]", "result": 1.17},
      {"measurement": "Formation of formazan dyes, absorbance, Means 4 h", "setting": "[2]", "result": 1.22},
      {"measurement": "Formation of formazan dyes, absorbance, Means 6 h", "setting": "[2]", "result": 1.27},
      {"measurement": "Formation of formazan dyes, absorbance, Means 8 h", "setting": "[2]", "result": 1.33},
      {"measurement": "Formation of formazan dyes, absorbance, Means 10 h", "setting": "[2]", "result": 1.37},
      {"measurement": "Formation of formazan dyes, absorbance, Means 12 h", "setting": "[2]", "result": 1.42},
      {"measurement": "Formation of formazan dyes, absorbance, Means 0 h", "setting": "[3]", "result": 0.15},
      {"measurement": "Formation of formazan dyes, absorbance, Means 1 h", "setting": "[3]", "result": 0.20},
      {"measurement": "Formation of formazan dyes, absorbance, Means 2 h", "setting": "[3]", "result": 0.23},
      {"measurement": "Formation of formazan dyes, absorbance, Means 3 h", "setting": "[3]", "result": 0.25},
      {"measurement": "Formation of formazan dyes, absorbance, Means 4 h", "setting": "[3]", "result": 0.36},
      {"measurement": "Formation of formazan dyes, absorbance, Means 6 h", "setting": "[3]", "result": 0.39},
      {"measurement": "Formation of formazan dyes, absorbance, Means 8 h", "setting": "[3]", "result": 0.40},
      {"measurement": "Formation of formazan dyes, absorbance, Means 10 h", "setting": "[3]", "result": 0.41},
      {"measurement": "Formation of formazan dyes, absorbance, Means 12 h", "setting": "[3]", "result": 0.42},
      {"measurement": "reduction of tetrazolium dye in the absence of substrate malate", "setting": "[3]", "result": "remained largely in oxidized forms"},
      {"measurement": "Formation of formazan dyes, absorbance, Means 0 h", "setting": "[4]", "result": 0.56},
      {"measurement": "Formation of formazan dyes, absorbance, Means 1 h", "setting": "[4]", "result": 0.88},
      {"measurement": "Formation of formazan dyes, absorbance, Means 2 h", "setting": "[4]", "result": 1.08},
      {"measurement": "Formation of formazan dyes, absorbance, Means 3 h", "setting": "[4]", "result": 1.23},
      {"measurement": "Formation of formazan dyes, absorbance, Means 4 h", "setting": "[4]", "result": 1.46},
      {"measurement": "Formation of formazan dyes, absorbance, Means 6 h", "setting": "[4]", "result": 1.73},
      {"measurement": "Formation of formazan dyes, absorbance, Means 8 h", "setting": "[4]", "result": 1.95},
      {"measurement": "Formation of formazan dyes, absorbance, Means 10 h", "setting": "[4]", "result": 2.16},
      {"measurement": "Formation of formazan dyes, absorbance, Means 12 h", "setting": "[4]", "result": 2.35},
      {"measurement": "conversion to reduced formazan dyes", "setting": "[4]", "result": "converted to reduced formazan dyes in a time-dependent manner"},
      {"measurement": "Formation of formazan dyes, absorbance, Means 0 h", "setting": "[5]", "result": 0.56},
      {"measurement": "Formation of formazan dyes, absorbance, Means 1 h", "setting": "[5]", "result": 0.79},
      {"measurement": "Formation of formazan dyes, absorbance, Means 2 h", "setting": "[5]", "result": 0.85},
      {"measurement": "Formation of formazan dyes, absorbance, Means 3 h", "setting": "[5]", "result": 0.81},
      {"measurement": "Formation of formazan dyes, absorbance, Means 4 h", "setting": "[5]", "result": 0.88},
      {"measurement": "Formation of formazan dyes, absorbance, Means 6 h", "setting": "[5]", "result": 0.87},
      {"measurement": "Formation of formazan dyes, absorbance, Means 8 h", "setting": "[5]", "result": 0.88},
      {"measurement": "Formation of formazan dyes, absorbance, Means 10 h", "setting": "[5]", "result": 0.86},
      {"measurement": "Formation of formazan dyes, absorbance, Means 12 h", "setting": "[5]", "result": 0.87},
      {"measurement": "reduction to formazan dyes by pooled oral lavage", "setting": "[5]", "result": "changed to formazan dyes in a significant amount"},
      {"measurement": "Formation of formazan dyes, absorbance, Means 0 h", "setting": "[6]", "result": 0.52},
      {"measurement": "Formation of formazan dyes, absorbance, Means 1 h", "setting": "[6]", "result": 0.75},
      {"measurement": "Formation of formazan dyes, absorbance, Means 2 h", "setting": "[6]", "result": 0.80},
      {"measurement": "Formation of formazan dyes, absorbance, Means 3 h", "setting": "[6]", "result": 0.75},
      {"measurement": "Formation of formazan dyes, absorbance, Means 4 h", "setting": "[6]", "result": 0.88},
      {"measurement": "Formation of formazan dyes, absorbance, Means 6 h", "setting": "[6]", "result": 1.00},
      {"measurement": "Formation of formazan dyes, absorbance, Means 8 h", "setting": "[6]", "result": 1.09},
      {"measurement": "Formation of formazan dyes, absorbance, Means 10 h", "setting": "[6]", "result": 1.20},
      {"measurement": "Formation of formazan dyes, absorbance, Means 12 h", "setting": "[6]", "result": 1.30},
      {"measurement": "formation of formazan dyes / precipitates with 1-methoxy PMS and NADH", "setting": "[7]", "result": "formed precipitates"},
      {"measurement": "Absorbance, formation of formazan dyes (Means)", "setting": "[8]", "result": "0.52 and 0.58 and 0.61 and 0.63 and 0.60 and 0.68 and 0.73 and 0.82"},
      {"measurement": "Absorbance, formation of formazan dyes (Means)", "setting": "[9]", "result": "0.35 and 0.37 and 0.40 and 0.43 and 0.29 and 0.30 and 0.31"},
      {"measurement": "Absorbance, formation of formazan dyes (Means)", "setting": "[10]", "result": "0.33 and 0.41 and 0.42 and 0.44 and 0.39 and 0.45 and 0.43"},
      {"measurement": "Means absorbance 0 h", "setting": "[11]", "result": 0.16},
      {"measurement": "Means absorbance 1 h", "setting": "[11]", "result": 0.16},
      {"measurement": "Means absorbance 2 h", "setting": "[11]", "result": 0.17},
      {"measurement": "Means absorbance 3 h", "setting": "[11]", "result": 0.19},
      {"measurement": "Means absorbance 4 h", "setting": "[11]", "result": 0.19},
      {"measurement": "Means absorbance 6 h", "setting": "[11]", "result": 0.24},
      {"measurement": "Means absorbance 8 h", "setting": "[11]", "result": 0.29},
      {"measurement": "Means absorbance 10 h", "setting": "[11]", "result": 0.18},
      {"measurement": "Means absorbance 12 h", "setting": "[11]", "result": 0.23},
      {"measurement": "Absorbance, formation of formazan dyes (Means)", "setting": "[12]", "result": "0.31 and 0.40 and 0.39 and 0.35 and 0.36 and 0.32 and 0.41"}
    ]}
  ]
}
